Format in all cases: cell-based, Escherichia coli
One experiment concerns E. coli (APH(3′)IIIa). The experiment is described as follows: MIC 50, broth micro-dilution, E. coli expressing APH(3′)IIIa. In short, it runs like this:
(§1)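 E. coli ATCC 25922 carrying plasmid-borne resistance genes, grown with 50 μg/mL KanaA, were diluted to OD 0.1 in MH2 and exposed to two-fold compound dilutions (64 μM-31.3 nM final) for 18 h at 37° C. OD600 of triplicates was averaged; MIC50 was the first column reaching half maximum growth.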
In general terms: Dilution methods test growth across graded concentrations, often in twofold steps.

Experiment [1] deals with E. coli (AAC(6′)Ie-APH(2″)Ia). Nature of the experiment: MIC 50, broth micro-dilution, E. coli expressing AAC(6′)Ie-APH(2″)Ia. Summed up:
as §1

The next experiment concerns E. coli (AAC(3)IV). The experiment is described as follows: MIC 50, broth micro-dilution, E. coli expressing AAC(3)IV. In short, it runs like this: as §1
Setting [2] is: ATCC25922 harboring plasmid encoding APH(3′)IIIa.
The mark [3] stands for this setting: ATCC25922 harboring plasmid encoding AAC(6′)Ie-APH(2″)Ia.
The mark [4] stands for this setting: ATCC25922 harboring plasmid encoding AAC(3)IV.
The mark [5] stands for this setting: Escherichia coli, ATCC25922, ATCC25922 harboring plasmid encoding APH(3′)IIIa.
Where [6] appears, read: Escherichia coli, ATCC25922, ATCC25922 harboring plasmid encoding AAC(6′)Ie-APH(2″)Ia.
Setting [7] is: Escherichia coli, ATCC25922, ATCC25922 harboring plasmid encoding AAC(3)IV.

In brackets after ≈: the same amount, converted by molar mass.

Consider `NCC[C@H](O)C(=O)N[C@@H]1CC(N)[C@@H](O[C@H]2OC(CN)[C@@H](O)CC2N)[C@H](F)C1OC1O[C@H](CO)[C@@H](O)C(N)[C@H]1O` (stereo partly drawn) [ABX5024, Tobra-AHB-F], for which the MIC50 – broadly, the lowest concentration that inhibits either 50% of growth or 50% of the strains tested, depending on the study – in the experiment with E. coli (APH(3′)IIIa) (setting [2]) is 1 µM (≈ 0.571 µg/mL); in experiment [1] (setting [3]), 1 µM (≈ 0.571 µg/mL); against E. coli (AAC(3)IV) (setting [4]), 2 µM (≈ 1.14 µg/mL).

Consider `NCCC(O)C(=O)NC1CC(N)C(OC2OC(CN)C(O)C(O)C2N)C(F)C1OC1OC(CO)C(O)C(N)C1O` (stereo not drawn) [ABX4007, KanaB-AHB-F], for which the “MIC50” value in the experiment on E. coli (APH(3′)IIIa) (setting [2]) is 16 µM (≈ 9.39 µg/mL); in experiment [1] (setting [3]), 2 to 4 µM; in the experiment with E. coli (AAC(3)IV) (setting [4]), 4 to 8 µM.

Turning to `NCC[C@H](O)C(=O)N[C@@H]1CC(N)[C@@H](O[C@H]2OC(CN)[C@@H](O)CC2N)[C@H](O)C1OC1O[C@H](CO)[C@@H](O)C(N)[C@H]1O` (stereo partly drawn) [ABX5004, Tobra-AHB], the “MIC50” value was 4 to 8 µM in the experiment with E. coli (APH(3′)IIIa) (setting [2]), 4 µM (≈ 2.27 µg/mL) in experiment [1] (setting [3]) and 4 µM (≈ 2.27 µg/mL) with E. coli (AAC(3)IV) (setting [4]).

On to `N=C(NC[C@@H]1CNCCO1)NC1[C@@H](O)C(OC2[C@@H](F)[C@H](O[C@H]3OC(CN)[C@@H](O)CC3N)C(N)C[C@H]2NC(=O)[C@@H](O)CCN)O[C@H](CO)[C@H]1O` (stereo partly drawn) [ABX5040, Tobra-AHB-F-Gua (S) morpholin-2-yl methyl], for which the results for the MIC50 (with E. coli (APH(3′)IIIa) (setting [5]); in experiment [1] (setting [6]); in the experiment with E. coli (AAC(3)IV) (setting [7])) were 0.25 µM (≈ 0.178 µg/mL), 0.25 µM (≈ 0.178 µg/mL) and 1 µM (≈ 0.712 µg/mL), respectively.

Regarding `NCC[C@H](O)C(=O)N[C@@H]1C[C@H](N)[C@@H](O[C@H]2O[C@H](CN)[C@@H](O)[C@H](O)[C@H]2O)[C@H](O)[C@H]1O[C@H]1O[C@H](CO)[C@@H](O)[C@H](N)[C@H]1O` [Amikacin, amikacin, reference compound], the MIC50 against E. coli (APH(3′)IIIa) (setting [5]) is 16 to 32 µM (≈ 9.37 to 18.7 µg/mL); in experiment [1] (setting [6]), 4 to 8 µM (≈ 2.34 to 4.68 µg/mL); in the experiment with E. coli (AAC(3)IV) (setting [7]), 8 µM (≈ 4.68 µg/mL).

In the case of `NCC[C@H](O)C(=O)N[C@@H]1CC(N)[C@@H](O[C@H]2OC(CN)[C@@H](O)[C@@H](O)C2N)[C@H](F)C1OC1O[C@H](CO)[C@@H](O)C(N)[C@H]1O` (stereo partly drawn) [ABX4003, 3′Epi-KanaB-AHB-F], the “MIC50” value in the experiment with E. coli (APH(3′)IIIa) (setting [2]) was 8 µM (≈ 4.69 µg/mL); in experiment [1] (setting [3]) it was 8 µM (≈ 4.69 µg/mL); in the experiment with E. coli (AAC(3)IV) (setting [4]), 8 to 16 µM.

Turning to `N=C(NC[C@H]1CCNC1)NC1[C@@H](O)C(OC2[C@@H](F)[C@H](O[C@H]3OC(CN)[C@@H](O)CC3N)C(N)C[C@H]2NC(=O)[C@@H](O)CCN)O[C@H](CO)[C@H]1O` (stereo partly drawn) [ABX5042, Tobra-AHB-F-Gua (S) pyrrolidine-3-ylmethyl], the MIC50 worked out at 0.25 µM (≈ 0.174 µg/mL) against E. coli (APH(3′)IIIa) (setting [5]), 0.25 µM (≈ 0.174 µg/mL) in experiment [1] (setting [6]) and 1 µM (≈ 0.696 µg/mL) in the experiment with E. coli (AAC(3)IV) (setting [7]).

As to `N=C(NCCCO)NC1[C@@H](O)C(OC2[C@@H](F)[C@H](O[C@H]3OC(CN)[C@@H](O)CC3N)C(N)C[C@H]2NC(=O)[C@@H](O)CCN)O[C@H](CO)[C@H]1O` (stereo partly drawn) [ABX5041, Tobra-AHB-F-Gua 3-hydroxy-propyl], the values for the MIC50 (with E. coli (APH(3′)IIIa) (setting [5]); in experiment [1] (setting [6]); against E. coli (AAC(3)IV) (setting [7])) were 0.5 µM (≈ 0.335 µg/mL), 0.5 µM (≈ 0.335 µg/mL) and 2 µM (≈ 1.34 µg/mL), respectively.

For the compound `N=C(N)NC1[C@@H](O)C(OC2[C@@H](F)[C@H](O[C@H]3OC(CN)[C@@H](O)[C@H](O)C3O)C(N)C[C@H]2NC(=O)[C@@H](O)CCN)O[C@H](CO)[C@H]1O` (stereo partly drawn) [ABX3003, 3′epi-KanaA-AHB-F-Gua], the MIC50 turned out to be 2 µM (≈ 1.26 µg/mL) against E. coli (APH(3′)IIIa) (setting [5]), 2 µM (≈ 1.26 µg/mL) in experiment [1] (setting [6]) and 4 µM (≈ 2.52 µg/mL) against E. coli (AAC(3)IV) (setting [7]).

In the case of `N=C(N)N[C@@H]1[C@@H](O)[C@@H](O[C@@H]2[C@@H](O)[C@H](O[C@H]3O[C@H](CN)[C@@H](O)[C@@H](O)[C@H]3N)[C@@H](N)C[C@H]2NC(=O)[C@@H](O)CCN)O[C@H](CO)[C@H]1O` [ABX4005, 3′Epi-KanaB-AHB-Gua], the “MIC50” value against E. coli (APH(3′)IIIa) (setting [2]) is 8 to 16 µM; in experiment [1] (setting [3]), 8 µM (≈ 5.01 µg/mL); against E. coli (AAC(3)IV) (setting [4]), 16 µM (≈ 10 µg/mL).

For `N=C(N)NC1[C@@H](O)C(OC2[C@@H](F)[C@H](O[C@H]3OC(CNCCO)[C@@H](O)CC3N)C(N)C[C@H]2NC(=O)[C@@H](O)CCN)O[C@H](CO)[C@H]1O` (stereo partly drawn) [ABX5045, 6N-2-hydroxy-ethyl-Tobra-AHB-F-Gua], the figures for the MIC50 (with E. coli (APH(3′)IIIa) (setting [5]); in experiment [1] (setting [6]); in the experiment on E. coli (AAC(3)IV) (setting [7])) were 1 µM (≈ 0.657 µg/mL), 0.5 µM (≈ 0.328 µg/mL) and 2 µM (≈ 1.31 µg/mL), respectively.

Take `N=C(NCCCN)NC1[C@@H](O)C(OC2[C@@H](F)[C@H](O[C@H]3OC(CN)[C@@H](O)CC3N)C(N)C[C@H]2NC(=O)[C@@H](O)CCN)O[C@H](CO)[C@H]1O` (stereo partly drawn) [ABX5030, Tobra-AHB-F-Gua-3-amino-propyl]: the results for the MIC50 (in the experiment on E. coli (APH(3′)IIIa) (setting [5]); in experiment [1] (setting [6]); in the experiment with E. coli (AAC(3)IV) (setting [7])) were 0.25 µM (≈ 0.167 µg/mL), 0.25 to 0.5 µM (≈ 0.167 to 0.335 µg/mL) and 0.5 µM (≈ 0.335 µg/mL), respectively.

On to `CNCCNC(=N)NC1[C@@H](O)C(OC2[C@@H](F)[C@H](O[C@H]3OC(CN)[C@@H](O)CC3N)C(N)C[C@H]2NC(=O)[C@@H](O)CCN)O[C@H](CO)[C@H]1O` (stereo partly drawn) [ABX5038, Tobra-AHB-F-Gua 2-(methylamino)ethyl], for which the MIC50 stood at 0.25 µM (≈ 0.167 µg/mL) with E. coli (APH(3′)IIIa) (setting [5]), 0.25 µM (≈ 0.167 µg/mL) in experiment [1] (setting [6]) and 1 µM (≈ 0.67 µg/mL) against E. coli (AAC(3)IV) (setting [7]).

Consider `N=C(NCC1CCOC1)NC1[C@@H](O)C(OC2[C@@H](F)[C@H](O[C@H]3OC(CN)[C@@H](O)CC3N)C(N)C[C@H]2NC(=O)[C@@H](O)CCN)O[C@H](CO)[C@H]1O` (stereo partly drawn) [ABX5051, Tobra-AHB-F-Gua tetrahydrofuran-3-yl methyl], for which the MIC50 against E. coli (APH(3′)IIIa) (setting [5]) amounted to 0.5 µM (≈ 0.348 µg/mL); in experiment [1] (setting [6]) it was 0.5 µM (≈ 0.348 µg/mL); in the experiment on E. coli (AAC(3)IV) (setting [7]), 2 µM (≈ 1.39 µg/mL).

Regarding `C[C@@H](N)CCNC(=N)NC1[C@@H](O)C(OC2[C@@H](F)[C@H](O[C@H]3OC(CN)[C@@H](O)CC3N)C(N)C[C@H]2NC(=O)[C@@H](O)CCN)O[C@H](CO)[C@H]1O` (stereo partly drawn) [ABX5047, Tobra-AHB-F-Gua (R) 3-amino-butyl], the MIC50 in the experiment with E. coli (APH(3′)IIIa) (setting [5]) is 0.25 µM (≈ 0.171 µg/mL); in experiment [1] (setting [6]), 0.25 µM (≈ 0.171 µg/mL); with E. coli (AAC(3)IV) (setting [7]), 1 to 2 µM (≈ 0.684 to 1.37 µg/mL).

Take `N=C(NCCN)NC1C(O)[C@@H](CO)OC(OC2C(F)[C@H](O[C@H]3OC(CN)[C@@H](O)CC3N)C(N)C[C@H]2NC(=O)[C@@H](O)CCN)[C@@H]1O` (stereo partly drawn) [ABX5020, Tobra-AHB-F-Gua-2-amino-ethyl]: the MIC50 with E. coli (APH(3′)IIIa) (setting [5]) was 0.5 µM (≈ 0.328 µg/mL); in experiment [1] (setting [6]) it was 0.5 µM (≈ 0.328 µg/mL); in the experiment on E. coli (AAC(3)IV) (setting [7]), 1 µM (≈ 0.656 µg/mL).

The values above are taken from patent US20220127297A1, “Novel Antibacterial 3"-Derivatives Of 4,6-Disubstituted 2,5-Dideoxystreptamine Aminoglycoside Antibiotics” (AGILeBiotics B.V., priority 2018, published 2022).
